# Data as given in patent US20230002446A1, “ANTI-INFLAMMATORY AGENTS” (The University of Sydney, priority 2019, published 2023).
# Where a SMILES comes first, the peptide text is derived from it. [ ]: non-standard residue; d: D form. AEEA = NCCOCCOCC(=O)O
# Legend:
# UV13-1 tumour cells = assay: murine skin tumour model, peptide trialled as vaccine antigen; format: in vivo, mice; conditions: 5 nmol sub-cutaneous 21 and 7 days prior to transfer of UV13-1 tumour cells
# Protocol: FIG. 1—Peptide administration leads to accelerated skin tumour growth. Mice received sub-cutaneous injections of mixtures containing 5 nmol peptide RP23 (SEQ ID NO:12) (solid line), PBS or liposome controls (dotted line) 21 and 7 days prior to transfer of UV13-1 tumour cells. […] Difference in survival was analysed statistically using a log-rank test.
# The inventors initially trialled RP23 (SEQ ID NO: 12) as a vaccine antigen in a murine skin tumour model. […] They then assessed whether RP23 could reduce inflammation in a murine model of contact dermatitis, using a contact hypersensitivity assay (FIG. 2a). […] Using RP23, the inventors carried out a dose-response assay to titrate the immune suppression. Using three doses in the low nanomole range (2, 5 or 10 nmol, about 0.3 0.8, 1.6 mg/kg), a dose-dependent reduction in ear swelling of up to 100% compared to controls was observed (FIG. 3c). […] Further, in a murine model of imiquimod-induced psoriasis (FIG. 4a), a single injection of RP23 reduced local erythema, skin thickness and scaling (FIG. 4b,c).
# C57BL/6 mice = assay: imiquimod-induced psoriasis model; format: in vivo
# Protocol: FIG. 4—Peptide administration reduces local disease severity in a mouse model of psoriasis. (A) Experimental outline (B) Clinical scores of mice receiving PBS or peptide RP23 (SEQ ID NO:12) injection, compared to daily (0-4 days) topical application of glucocorticoid on the back and ear. (C) Measures of disease local to the peptide RP23 injection site. Redness was measured using an unbiased erythema meter and skin thickness by manual callipers. (D) Spleen weight at day 5 as a measure of systemic immune suppression. […] Data are presented as mean±S.E.M. Statistical significance was determined by ANOVA with Dunnett's multiple comparison test, *p<0.05, **p<0.01, ***p<0.001, ****p<0.0001.
# FIG. 10. Therapeutic synergy of RP23 and topical steroid in the murine imiquimod-induced psoriasis model. Aldara cream (5% imiquimod, 57.5 mgs) was applied daily (days 0-4) to the backs of C57BL/6 female mice to induce psoriasis. Clinical scores (PASI), modified psoriasis area and severity index) of mice receiving (A) PBS or RP23 injection at day −1, with or without topical application of glucocorticoid (0.05% betamethasone dipropionate, “BD” 30 mgs) on the back at day 0 (B) PBS or RP23 injection at day 1 and topical application of glucocorticoid at day 1, in comparison to PBS injection only at day −1. Data are the means+/−SEM (n=5). Statistical significance was determined by ANOVA with Dunnett's multiple comparison test to PBS only control, *p<0.05, **p<0.01, ***p<0.001, ****p<0.0001.
# The backs of 8-week old female C57BL/6 mice (Australian BioResources) were coarse shaved. A minimum of 24 hours later, 10 nmol RP23 was delivered via sub-cutaneous injection at the lower back in 200 μl phosphate buffered saline (PBS). Groups of mice acting as positive controls for disease development received injection of PBS only. One or seven days later, psoriasis-like inflammation was induced via topical application of 5% imiquimod cream (Aldara, Inova Pharmaceuticals) to the shaved back (57.5 mgs) and one ear (5 mg, divided between dorsal and ventral sides). The contralateral ear served as a negative control for imiquimod-induced inflammation. Imiquimod application was repeated daily for four consecutive days. C57BL/6 mice experience rapid weight loss (up to 20%) upon application of imiquimod cream. Supportive care was provided in the form of dietary supplementation commenced 2 days prior to imiquimod application, and intra-peritoneal injection of 300 μl sterile PBS on days two and three of imiquimod application. Disease progression was monitored for five days, by recording weight loss and grading disease of the back skin using a modified Psoriasis Area and Severity Index (PASI) clinical scoring system, that assessed only disease severity. Additionally, erythema meter (DSM II ColorMeter, Cortex Technology, Denmark) readings were taken at four quadrants on the back skin and skin backfold thickness measurements were recorded using manual callipers. Disease progression of the ear skin was determined by recording ear thickness, measured by manual callipers. As a positive control for immune suppressive therapy, groups of mice received daily topical application of betamethasone dipropionate 0.05% (MSD) cream (30 mgs on the back, 10 mgs on the ear).
# Aldara cream (5% imiquimod, 57.5 mgs) was applied daily (days 0-4) to the backs of C57BL/6 female mice to induce psoriasis. Clinical scores (PASI, modified psoriasis area and severity index) of mice receiving prophylactic PBS or RP23 (at day −1), with or without topical application of glucocorticoid (0.05% betamethasone dipropionate, 30 mgs) to the back at day 0, were determined (FIG. 10A).
# RP23 and BD therapy were also tested when given synergistically at a therapeutic timepoint (at day 1). Psoriasis was induced as above, but clinical scores were determined daily for 10 days after ceasing imiquimod application at day 5, to record the rate and degree of psoriasis disease resolution (FIG. 10B).
# [1] = system: primary murine splenic dendritic cells; assay: LPS-stimulated murine splenocytes, DC activation (flow cytometry); format: cell-based
# Protocol: (§1) FIG. 5—Peptide administration reduces the activation of pro-inflammatory DCs and macrophages. (A) C57BL/6 murine splenocytes were stimulated with LPS±peptide RP23 (SEQ ID NO:12) and expression of activation markers on DCs was assessed by flow cytometry. (B) Bone marrow derived murine macrophages were incubated with peptide RP23 (30 mins) and stimulated with LPS (overnight). Positive controls were stimulated with LPS only. Negative controls were unstimulated. Inflammatory cytokine production was assessed by ELISA. (C) CD14+ cells were isolated from human blood and differentiated into macrophages by culturing with human serum. Cells were incubated with peptide RP23 (30 mins), then stimulated overnight with LPS (left panel) or imiquimod (right panel). Inflammatory cytokine (IL-6 or IL-12/23) production was assessed by ELISA. Representative of 6 donors. Data are presented as mean±S.E.M. Statistical significance was determined by ANOVA with Dunnett's multiple comparison test, *p<0.05, **p<0.01, ***p<0.001.
# (§2) Using an in vitro culture system, it was determined whether RP23 could suppress the activity of specific pro-inflammatory immune cells. […] The culture of murine bone marrow derived macrophages with RP23 led to reduced IL-6, MCP-1 and TNF release after LPS-stimulation (FIG. 5b). […]
# [2] = system: primary human blood derived macrophages; assay: LPS- or imiquimod-stimulated human blood derived macrophages, cytokine ELISA; format: cell-based; conditions: after stimulation with either LPS or imiquimod
# Protocol: as §1, §2
# mice = assay: tolerability of injection in mice; format: in vivo; conditions: even 10 nmol daily for 6 days sub-cutaneous (data not shown)
smiles,measurement,setting,value
CSCC[C@H](NC(=O)COCCOCCNC(=O)[C@H](CCCCN)NC(=O)[C@H](CCCCN)NC(=O)[C@H](CCCCN)NC(=O)[C@@H](N)CCCCN)C(=O)N[C@H](C(=O)N1CCC[C@H]1C(=O)NCC(=O)N[C@H](C(=O)N[C@@H](CCC(N)=O)C(=O)N[C@@H](CO)C(=O)N1CCC[C@H]1C(=O)N[C@@H](Cc1ccccc1)C(=O)N[C@@H](Cc1ccccc1)C(=O)N[C@@H](CC(C)C)C(=O)N[C@@H](CC(C)C)C(=O)N[C@@H](CC(C)C)C(=O)N[C@@H](CC(C)C)C(=O)N[C@@H](CC(C)C)C(=O)N[C@H](C(=O)N[C@H](C(=O)N[C@@H](CC(C)C)C(=O)N[C@H](C(=O)N[C@H](C(=O)N[C@H](C(=O)O)C(C)C)C(C)C)[C@@H](C)O)C(C)C)[C@@H](C)O)[C@@H](C)O)[C@@H](C)O [RP23] (H-KKKK[AEEA]MTPGTQSPFFLLLLLTVLTVV-OH),skin tumour growth,UV13-1 tumour cells,modest increase in tumour growth
same,survival of tumour-bearing mice,UV13-1 tumour cells,succumbed to their tumour earlier
same,disease at a distal site (ear thickness),"C57BL/6 mice; injection at lower back, ear measured",did not suppress disease at a distal site
same,local erythema,C57BL/6 mice; single injection,reduced
same,scaling,C57BL/6 mice; single injection,reduced
same,skin thickness,C57BL/6 mice; single injection,reduced
same,systemic immune suppression / locality of effect,"C57BL/6 mice; spleen weight at day 5, distal ear thickness (FIG. 4d)",isolated to the area in which RP23 was delivered
same,expression of surface activation markers,[1]; LPS stimulation,reduced
same,secretion of inflammatory chemokines,[1]; data not shown,reduced the secretion of inflammatory chemokines
same,IL-6 release,[2],reduced
same,IL-12/23 release,[2],reduced
same,adverse reactions,mice,No adverse reactions of any kind
